# Test results taken from BindingDB's records for doi:10.1074/jbc.M114.564278 (University of Michigan, 2014).
# Where a SMILES comes first, the peptide text is derived from it. [ ]: non-standard residue; d: D form. The star is where a group is joined. X1 = O=C(O)c1cc(NC(=S)*)ccc1-c1c2ccc(=O)cc-2oc2cc(O)ccc12; Ala(3-Me-diazirin-3-yl) = CC1(C[C@H](N)C(=O)O)N=N1; βAla = NCCC(=O)O
# Experiments:
# [1] = target: T1, UDP-3-O-(3-hydroxymyristoyl)glucosamine N-acyltransferase (Escherichia coli (strain K12), UniProt P21645); experiment: Fluorescence Polarization Assay; conditions: pH 8
# T1 sequence (P21645 whole entry): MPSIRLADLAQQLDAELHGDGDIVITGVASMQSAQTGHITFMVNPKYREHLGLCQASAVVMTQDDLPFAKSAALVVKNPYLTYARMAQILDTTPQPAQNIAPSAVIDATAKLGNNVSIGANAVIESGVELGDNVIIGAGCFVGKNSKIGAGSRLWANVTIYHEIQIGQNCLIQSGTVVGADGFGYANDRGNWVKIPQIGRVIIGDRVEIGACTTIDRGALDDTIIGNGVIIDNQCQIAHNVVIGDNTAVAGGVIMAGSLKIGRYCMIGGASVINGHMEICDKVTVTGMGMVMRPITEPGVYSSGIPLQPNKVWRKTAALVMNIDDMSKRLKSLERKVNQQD
# Experimental: (§1) The fluorescence polarization assay was performed as previously described [Jenkins et al., ACS Chem. Biol., 7:1170-1177]. In 384-well black Costar plates, LpxA or His6-LpxD were serially diluted while holding the fluorescent peptide at 20 nM in a final volume of 50 μl in 20mM HEPES pH 8.0 (0.01% DMSO). The wells were gently mixed and incubated at 30 °C in the dark for 15 min. Polarization was measured on a SpectraMax M5 plate reader in triplicate with readings taken at λex = 485 nm and λem = 525 nm.
# [2] = target: T2, Acyl-[acyl-carrier-protein]--UDP-N-acetylglucosamine O-acyltransferase (Escherichia coli (strain K12), UniProt P0A722); experiment: Fluorescence Polarization Assay; conditions: pH 8
# T2 sequence (P0A722 whole entry): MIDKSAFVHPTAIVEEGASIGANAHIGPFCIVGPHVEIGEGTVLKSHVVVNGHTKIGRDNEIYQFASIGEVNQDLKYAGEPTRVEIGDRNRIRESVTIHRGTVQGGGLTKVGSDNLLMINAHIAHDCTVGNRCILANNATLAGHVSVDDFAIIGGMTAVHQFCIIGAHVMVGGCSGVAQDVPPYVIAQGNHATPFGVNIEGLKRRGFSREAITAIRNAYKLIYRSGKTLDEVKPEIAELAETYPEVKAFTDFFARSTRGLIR
# Experimental: as §1
Compound,Kd [1] [µM],Kd [2] [µM]
CC[C@H](C)[C@H](NC(=O)[C@H](CC(=O)O)NC(=O)[C@H](Cc1c[nH]c2ccccc12)NC(=O)[C@H](CCCCN)NC(=O)[C@@H]1CCCN1C(=O)[C@H](CC(C)C)NC(=O)[C@H](CCSC)NC(=O)[C@H](Cc1ccc(O)cc1)NC(=O)[C@H](CC1(C)N=N1)NC(=O)[C@H](CC(N)=O)NC(=O)[C@@H](NC(=O)CCNC(=S)Nc1ccc(-c2c3ccc(=O)cc-3oc3cc(O)ccc23)c(C(=O)O)c1)[C@@H](C)O)C(=O)N1CCC[C@H]1C(N)=O [FITC-(βa)TN(L-photoleucine)YMLPKWDIP-CONH2] ({X1-βAla}-TN[Ala(3-Me-diazirin-3-yl)]YMLPKWDIP-NH2),2.1,50
CC[C@H](C)[C@H](NC(=O)[C@H](CC(=O)O)NC(=O)[C@H](Cc1c[nH]c2ccccc12)NC(=O)[C@H](CCCCN)NC(=O)[C@@H]1CCCN1C(=O)[C@H](CC1(C)N=N1)NC(=O)[C@H](CCSC)NC(=O)[C@H](Cc1ccc(O)cc1)NC(=O)[C@H](CC(C)C)NC(=O)[C@H](CC(N)=O)NC(=O)[C@@H](NC(=O)CCNC(=S)Nc1ccc(-c2c3ccc(=O)cc-3oc3cc(O)ccc23)c(C(=O)O)c1)[C@@H](C)O)C(=O)N1CCC[C@H]1C(N)=O [FITC-(βa)TNLYM(L-photoleucine)PKWDIP-CONH2] ({X1-βAla}-TNLYM[Ala(3-Me-diazirin-3-yl)]PKWDIP-NH2),1.1,32
CSCC[C@H](NC(=O)[C@H](Cc1ccc(O)cc1)NC(=O)[C@H](CC(C)C)NC(=O)[C@H](CC(N)=O)NC(=O)[C@@H](NC(=O)CCNC(=S)Nc1ccc(-c2c3ccc(=O)cc-3oc3cc(O)ccc23)c(C(=O)O)c1)[C@@H](C)O)C(=O)N[C@@H](CC(C)C)C(N)=O [FITC-(βa)TNLYML-CONH2] ({X1-βAla}-TNLYML-NH2),22,12
CSCC[C@H](NC(=O)[C@H](Cc1ccc(O)cc1)NC(=O)[C@H](CC(C)C)NC(=O)[C@H](CC(N)=O)NC(=O)[C@@H](NC(=O)CCNC(=S)Nc1ccc(-c2c3ccc(=O)cc-3oc3cc(O)ccc23)c(C(=O)O)c1)[C@@H](C)O)C(=O)N[C@@H](CC(C)C)C(=O)O [FITC-(βa)TNLYML-COOH] ({X1-βAla}-TNLYML-OH),36,4.4
CSCC[C@H](NC(=O)[C@H](Cc1ccc(O)cc1)NC(=O)[C@H](CC(C)C)NC(=O)[C@H](CC(N)=O)NC(=O)[C@@H](NC(=O)CCNC(=S)Nc1ccc(-c2c3ccc(=O)cc-3oc3cc(O)ccc23)c(C(=O)O)c1)[C@@H](C)O)C(=O)N[C@@H](CC(C)C)C(=O)N1CCC[C@H]1C(=O)N[C@@H](CCCCN)C(=O)N[C@@H](Cc1c[nH]c2ccccc12)C(=O)N[C@@H](CC(=O)O)C(=O)N[C@@H](CC1(C)N=N1)C(=O)N1CCC[C@H]1C(N)=O [FITC-(βa)TNLYMLPKWD(L-photoleucine)P-CONH2] ({X1-βAla}-TNLYMLPKWD[Ala(3-Me-diazirin-3-yl)]P-NH2),0.8,22
CC[C@H](C)[C@H](NC(=O)[C@H](CC(=O)O)NC(=O)[C@H](Cc1c[nH]c2ccccc12)NC(=O)[C@H](CCCCN)NC(=O)[C@@H]1CCCN1C(=O)[C@H](CC(C)C)NC(=O)[C@H](CCSC)NC(=O)[C@H](Cc1ccc(O)cc1)NC(=O)[C@H](CC(C)C)NC(=O)[C@H](CC(N)=O)NC(=O)[C@@H](NC(=O)CCNC(=S)Nc1ccc(-c2c3ccc(=O)cc-3oc3cc(O)ccc23)c(C(=O)O)c1)[C@@H](C)O)C(=O)N1CCC[C@H]1C(N)=O [FITC-(βa)TNLYMLPKWDIP-CONH2] ({X1-βAla}-TNLYMLPKWDIP-NH2),0.6,17
H-TNLYML-NH2 [RJPXD33Δ6],–,23
H-TNLYML-OH [RJPXD33Δ6-COOH],–,2.1
